Experimental findings from paper PMC10899606, “Thwarting resistance: MgrA inhibition with methylophiopogonanone a unveils a new battlefront against S. aureus” (NPJ Biofilms and Microbiomes, 2024) are described below.

In assay [1] the target is T1, MgrA (Staphylococcus aureus, UniProt P0C1S0).
T1 construct: homodimer in nature
Description: intrinsic fluorescence quenching (ex […] nm), Stern-Volmer, linear regression. It counts as binding. Particulars: PBS, MgrA 2 nM; static quenching.

The target in assay [2] is T1, MgrA. Description: fluorescence anisotropy, inhibition of MgrA binding to DNA probe. It counts as biochemical. For orientation: Fluorescence polarisation rises when a labelled molecule tumbles more slowly, as on binding a larger partner.
Assay [3] concerns the target T1, MgrA. The experiment in a line: thermal shift assay (Sypro Orange). The format is binding. Particulars: Tm is lowered by the compound; MgrA to Mo-A 1:10 molar ratio, 10 mM Tris, 150 mM NaCl, pH 7.5.

T1 sequence (P0C1S0 2-147): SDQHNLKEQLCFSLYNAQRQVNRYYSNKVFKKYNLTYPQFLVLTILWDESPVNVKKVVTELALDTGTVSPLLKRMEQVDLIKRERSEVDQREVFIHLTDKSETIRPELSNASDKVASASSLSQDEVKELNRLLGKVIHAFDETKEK

In general, IC50 refers to the point on the concentration scale where inhibition reaches its midpoint. The low end stands for inhibition by little substance, the high end for a need for much substance. In assay [1], `Cc1c(O)c(C)c2c(c1O)C(=O)[C@H](Cc1ccc3c(c1)OCO3)CO2` [methylophiopogonanone A] yielded a KA of 62500 L/mol. In assay [2], this compound gave an IC50 of 95.9 µM. For the same compound, in assay [3], the “∆Tm (decrease)” value is above 3 °C.
